Patent US12122778B2, “Activating pyruvate kinase R” (Novo Nordisk Health Care AG, priority 2018, dated 2024)

Experiments:
PKR(G332S) = PKR(G332S) (Homo sapiens, UniProt P30613, G332S); assay: Luminescence Biochemical Assay (Kinase Glo Plus), PKR G332S mutant; conditions: with FBP; for activation at 1.54 µM: 1.54 μM compound, read-out: AC50 LUM KGP FBP % Fold@1.54 μM mean; for AC50: read-out: AC50 LUM KGP FBP AC50 μM gmean (column A); for Emax: read-out: AC50 LUM KGP FBP MAX % FOLD mean
PKR(R510Q) = PKR(R510Q) (Homo sapiens, UniProt P30613, R510Q); assay: Luminescence Biochemical Assay (Kinase Glo Plus), PKR R510Q mutant; conditions: without FBP; for activation at 1.54 µM: 1.54 μM compound, read-out: AC50 LUM KGP woFBP % Fold@1.54 μM mean; for AC50: read-out: AC50 LUM KGP woFBP AC50 μM gmean; for Emax: read-out: AC50 LUM KGP woFBP MAX % FOLD mean
Sequence of PKR(R510Q) (P30613 whole entry R510Q): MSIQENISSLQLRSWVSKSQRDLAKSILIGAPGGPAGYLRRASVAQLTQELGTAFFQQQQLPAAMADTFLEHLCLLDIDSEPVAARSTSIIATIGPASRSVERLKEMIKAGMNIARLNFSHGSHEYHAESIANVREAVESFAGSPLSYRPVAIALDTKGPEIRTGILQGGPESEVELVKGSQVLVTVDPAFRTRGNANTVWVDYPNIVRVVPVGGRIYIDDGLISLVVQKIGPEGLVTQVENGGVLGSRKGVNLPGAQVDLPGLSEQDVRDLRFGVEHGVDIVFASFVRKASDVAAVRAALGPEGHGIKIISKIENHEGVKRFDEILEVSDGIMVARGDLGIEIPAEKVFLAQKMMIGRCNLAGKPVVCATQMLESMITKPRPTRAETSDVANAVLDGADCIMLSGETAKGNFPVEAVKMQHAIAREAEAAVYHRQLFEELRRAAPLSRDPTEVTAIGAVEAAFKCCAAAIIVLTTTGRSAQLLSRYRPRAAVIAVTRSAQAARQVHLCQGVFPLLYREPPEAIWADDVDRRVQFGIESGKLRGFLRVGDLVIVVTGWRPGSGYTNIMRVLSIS

PKR(wt) = PKR(wt) (Homo sapiens, UniProt P30613); assay: Luminescence Biochemical Assay (Kinase Glo Plus), wild type PKR; conditions: without FBP; for activation at 1.54 µM: 1.54 μM compound, read-out: AC50 LUM KGP woFBP % Fold@1.54 μM mean; for AC50: read-out: AC50 LUM KGP woFBP AC50 μM gmean; for Emax: read-out: AC50 LUM KGP woFBP MAX % FOLD mean
Sequence of PKR(wt) (P30613 whole entry): as the sequence (P30613 whole entry R510Q) above, with Q510R counted along it

Sequence of PKR(G332S) (P30613 whole entry G332S): as the sequence (P30613 whole entry R510Q) above, with G332S, Q510R counted along it

SMILES | activation at 1.54 µM (PKR(G332S)) [%] | AC50 (PKR(G332S)) [µM] | Emax (PKR(G332S)) [%] | activation at 1.54 µM (PKR(R510Q)) [%] | AC50 (PKR(R510Q)) [µM] | Emax (PKR(R510Q)) [%] | activation at 1.54 µM (PKR(wt)) [%] | AC50 (PKR(wt)) [µM] | Emax (PKR(wt)) [%]
O=C(Cc1ccc(F)cc1F)N1CC2=C(C1)CN(S(=O)(=O)c1cccnc1)C2 [Example 18-66, 2-(2,4-Difluorophenyl)-1-[5-(pyridine-3-sulfonyl)-1H,2H,3H,4H,5H,6H-pyrrolo[3,4-c]pyrrol-2-yl]ethan-1-one] | 75 to 250 | 1 to 40 | 75 to 250 | 75 to 250 | 1 to 40 | 250 to 500 | 75 to 250 | 1 to 40 | 250 to 500
O=C(NCc1ccccc1F)N1CC2=C(C1)CN(S(=O)(=O)c1ccc(OC(F)F)cc1)C2 [Example 21-15, 5-[4-(Difluoromethoxy)benzenesulfonyl]-N-[(2-fluorophenyl)methyl]-1H,2H,3H,4H,5H,6H-pyrrolo[3,4-c]pyrrole-2-carboxamide] | 75 to 250 | ≤ 0.1 | 75 to 250 | 250 to 50000 | ≤ 0.1 | 250 to 500 | 250 to 50000 | ≤ 0.1 | 250 to 500
COc1ccc(CNC(=O)N2CC3=C(C2)CN(S(=O)(=O)c2ccc(OC(F)F)cc2)C3)cc1 [Example 21-10, 5-[4-(Difluoromethoxy)benzenesulfonyl]-N-[(4-methoxyphenyl)methyl]-1H,2H,3H,4H,5H,6H-pyrrolo[3,4-c]pyrrole-2-carboxamide] | 75 to 250 | ≤ 0.1 | 75 to 250 | 250 to 50000 | ≤ 0.1 | 250 to 500 | 250 to 50000 | ≤ 0.1 | 250 to 500
O=C([C@H]1CCCO1)N1CC2=C(C1)CN(S(=O)(=O)c1cccnc1)C2 [Example 18-59, 3-({5-[(2R)-oxolane-2-carbonyl]-1H,2H,3H,4H,5H,6H-pyrrolo[3,4-c]pyrrol-2-yl}sulfonyl)pyridine] | 75 to 250 | 1 to 40 | 75 to 250 | 75 to 250 | 1 to 40 | 75 to 250 | 75 to 250 | 1 to 40 | 75 to 250
O=C([C@H](O)c1ccccc1)N1CC2=C(C1)CN(S(=O)(=O)c1cccc(C(F)(F)F)n1)C2 [Example 9-3, (2R)-2-hydroxy-2-phenyl-1-[5-[6-(trifluoromethyl)pyridine-2-sulfonyl]-1H,2H,3H,4H,5H,6H-pyrrolo[3,4-c]pyrrol-2-yl]ethan-1-one] | 75 to 250 | 1 to 40 | 75 to 250 | 75 to 250 | 1 to 40 | 250 to 500 | 75 to 250 | 0.1 to 1 | 75 to 250
O=C(N1CC2=C(C1)CN(S(=O)(=O)c1cccc3cccnc13)C2)N1CC(O)(Cc2ccccc2)C1 [Example 12-1, (3-Benzyl-3-hydroxyazetidin-1-yl)(5-(quinolin-8-ylsulfonyl)-4,5-dihydropyrrolo[3,4-c]pyrrol-2(1H,3H,4)-yl)methanone] | 75 to 250 | 1 to 40 | 75 to 250 | 75 to 250 | 1 to 40 | 75 to 250 | 75 to 250 | 1 to 40 | 75 to 250
O=C(NCc1ccccc1F)N1CC2=C(C1)CN(S(=O)(=O)c1cccnc1)C2 [Example 21-37, N-[(2-fluorophenyl)methyl]-5-(pyridine-3-sulfonyl)-1H,2H,3H,4H,5H,6H-pyrrolo[3,4-c]pyrrole-2-carboxamide] | 75 to 250 | 0.1 to 1 | 75 to 250 | 250 to 50000 | 0.1 to 1 | 250 to 500 | 75 to 250 | 0.1 to 1 | 250 to 500
Cc1ccc(S(=O)(=O)N2CC3=C(CN(C(=O)[C@H](O)c4ccccc4)C3)C2)cc1F [Example 18-51, (2R)-1-[5-(3-fluoro-4-methylbenzenesulfonyl)-1H,2H,3H,4H,5H,6H-pyrrolo[3,4-c]pyrrol-2-yl]-2-hydroxy-2-phenylethan-1-one] | 75 to 250 | 1 to 40 | 75 to 250 | 75 to 250 | 0.1 to 1 | 250 to 500 | 75 to 250 | 0.1 to 1 | 75 to 250
O=C(NCc1ccccc1F)N1CC2=C(C1)CN(S(=O)(=O)c1ccccn1)C2 [Example 21-42] | 75 to 250 | 0.1 to 1 | 75 to 250 | 250 to 50000 | 0.1 to 1 | 250 to 500 | 250 to 50000 | 0.1 to 1 | 250 to 500
O=C(Cn1cnnn1)N1CC2=C(C1)CN(S(=O)(=O)c1ccc(OC(F)F)cc1)C2 [Example 18-19, 1-(5-((4-(difluoromethoxy)phenyl)sulfonyl)-3,4,5,6-tetrahydropyrrolo[3,4-c]pyrrol-2(1H)-yl)-2-(1H-tetrazol-1-yl)ethan-1-one] | 75 to 250 | ≤ 0.1 | 75 to 250 | 250 to 50000 | 0.1 to 1 | 250 to 500 | 250 to 50000 | 0.1 to 1 | 250 to 500
O=C(NCc1cccnc1)N1CC2=C(C1)CN(S(=O)(=O)c1ccc3ncsc3c1)C2 [Example 20-56, 5-(1,3-Benzothiazole-6-sulfonyl)-N-(pyridin-3-ylmethyl)-1H,2H,3H,4H,5H,6H-pyrrolo[3,4-c]pyrrole-2-carboxamide] | 75 to 250 | 0.1 to 1 | 75 to 250 | 75 to 250 | 1 to 40 | 250 to 500 | 75 to 250 | 1 to 40 | 250 to 500
